Laboratory results taken from US7576129B2, “Carboxylic acid compounds” (Ono Pharmaceutical Co., Ltd., priority 2003, dated 2009).

What was measured:
Format in all cases: in vivo, rat
[1] = system: adjuvant-induced arthritis model; assay: Pain reaction of adjuvant-induced arthritis model (squeaking reaction); details: Lewis male rats, oral, 1, 3, 10 and 30 mg/kg, observed 1-4 hours after administration
Procedure: A suppressive effect of the compound of the present invention to pain reaction of an adjuvant-induced arthritis model which is a pain model for chronic arthritis was investigated as follows using a squeaking reaction as an index. Lewis male rats of seven weeks age were used. After volume of the left hind leg of each rat was measured, 600 μg/100 μL of dried cells of Mycobacterium butyricum (Difco) suspended in liquid paraffin was injected as an adjuvant into paw skin of a right hind leg to prepare an adjuvant-arthritis rat. After 22 days from injection of the adjuvant, bending and stretching of a knee joint of the left hind leg were conducted for five times before oral administration of a test substance and the rats which squeaked for all of the five times were subjected to the experiment. Depending upon the volume of edema of left hind leg on the previous day, grouping was conducted where one group comprised ten rats. Each of the compound of the present invention (1, 3, 10 and 30 mg/kg) and a 0.5% aqueous solution of methyl cellulose (5 mL/kg) as a control was orally administered. An analgesic action was observed after 1, 2, 3 and 4 hour(s) from the administration.

[2] = system: carrageenin-induced hyperalgesia model; assay: Carrageenin-induced hyperalgesia model (escape latency, plantar test); details: male SD rats, oral 3, 10 and 30 mg/kg 1 hour before carrageenin, 3 hours after injection
Procedure: An analgesic effect of the compound of the present invention to carrageenin-induced hyperalgesia model which was an acute inflammation pain model was investigated as follows using escape latency as an index. Male rats of an SD strain of seven weeks age were used. Thermal stimulation was irradiated to right hind leg of each rat using a measuring device for a plantar test and the time until escape raising the leg was measured and used as the escape latency. Depending upon the escape latency, grouping was conducted where each group comprised 7 to 8 rats and each of the compound of the present invention (3, 10 and 30 mg/kg) and a 0.5% aqueous solution of methyl cellulose (5 mL/kg) as a control was orally administered. After 1 hour from the oral administration of a test substance, carrageenin (2 mg/100 μL) dissolved in a physiological saline was subcutaneously injected to the sole of right hind leg of the rat. The escape latency during 3 hours after injection of carrageenin was measured.

[3] = system: pollakiuria model induced by sulprostone; assay: Pollakiuria model induced by sulprostone (urination frequency); details: male Crj: CD (SD) IGS rats, oral 3, 10, 30 and 100 mg/kg 0.5 hour before sulprostone s.c., 3 hours measurement
Procedure: A suppressive action of the compound of the present invention to a pollakiuria model induced by sulprostone was investigated as follows. Male Crj: CD (SD) IGS rats of body weight of about 300 g were used. Each of the compound of the present invention (3, 10, 30 and 100 mg/kg) and a 0.5% aqueous solution of methyl cellulose (5 mL/kg) as a control was orally administered. After 0.5 hour from oral administration of a test substance, sulprostone (0.2 mg/4 mL/kg) was subcutaneously administered. As a non-induced group, a 0.5% aqueous solution of methyl cellulose was orally administered and, after […], a physiological saline was subcutaneously administered. Measurement of urination was conducted from immediately after administration of sulprostone until 3 hours thereafter. Measurement of urination was done in such a manner that, under the condition of giving neither feed nor water, the animals were placed in a metabolic cage equipped with a urine measuring device and weight of the collected urine with a lapse of time was recorded using a data-collecting system. Incidentally, case numbers for each group were made 3 to 4 cases.

Cc1cc(C)cc([C@@H](CC(C)C)NC(=O)c2cc(COc3cc(F)ccc3C)ccc2CCC(=O)O)c1 [compound (I), 3-(2-((((1R)-1-(3,5-dimethylphenyl)-3-methylbutyl)amino)carbonyl)-4-(5-fluoro-2-methylphenoxymethyl)phenyl)propanoic acid]
dose as from which individual positive for the analgesic action was noted [1]: ≤ 10 mg/kg | dose as from which escape latency was significantly high as compared with the control group [2]: not more than 10 mg/kg | dose as from which urination frequency showed low values [3]: not more than 30 mg/kg
